Measurements taken from patent publication US6537797B1, “Compositions and methods useful in bioremediation of polychlorinated biphenyls” (Indiana University, Advanced Research and Technology …, priority 1999, dated 2003).
Entries after “also recorded” stand apart in the source; their conditions may differ.

Columns and labels:
Format in all cases: cell-based
bacterial strain SK-3 [1] = experiment: Biodegradation of commercial PCB mixture Aroclor 1242 as sole carbon source; details: 12 days; benzoate-grown washed cells; no cosubstrate; GC
Procedure: In addition to testing the ability to use a single PCB congener as a sole carbon source (as described in Example 1), several strains of the isolated bacteria of the invention (SK-1, SK-2, SK-3 and SK-4) were tested for the ability to degrade low chlorinated PCB congeners (dichlorobiphenyls and trichlorobiphenyls) of a commercial PCB mixture in the absence of biphenyl or any other cometabolic substrate as a carbon source.
The ability of SK-1, SK-2, SK-3 and SK-4 to degrade Aroclor® 1242 was assessed using cells which were grown on benzoate and then washed. Briefly, the cells were washed by centrifuging the cells, decanting the supernatant, resuspending the cells in fresh medium, then pelleting the cells using centrifugation again and decanting the supernatant to remove residual benzoate and other carbon sources. Aroclor® 1242 was the sole carbon source provided to the cells.
The degradation of Aroclor® 1242 by SK-3 was monitored using gas is chromatography analysis and the results are depicted in FIG. 12. […] The degraded PCB congeners were identified as follows: Peak #1 was 2,5-DCBP or 2,4-DCBP; Peak #2 was 2,3′-DCBP; and Peak #3 was 2,4′-DCBP. No significant degradation of any PCB congener containing three or more chlorine atoms was observed.

bacterial strain SK-2 [2] = experiment: Growth substrate tests in liquid medium; details: initial concentration 100 parts per million, except chlorobenzoate 2-3 millimolar
Procedure: (§1) The ability of the four isolated strains to grow on selected polychlorobiphenyls as a sole carbon source was assessed.
(§2) (All tests were conducted in a liquid medium. The initial concentration of the organic substrate was 100 parts per million, except chlorobenzoate, which was 2-3 millimolar).

bacterial strain SK-3 [3] = experiment: Growth substrate tests in liquid medium; details: initial concentration 100 parts per million, except chlorobenzoate 2-3 millimolar
Procedure: as §1, §2

bacterial strain SK-4 [4] = experiment: Growth substrate tests in liquid medium; details: initial concentration 100 parts per million, except chlorobenzoate 2-3 millimolar
Procedure: as §1, §2

bacterial strain SK-1 = experiment: Growth substrate tests in liquid medium; details: initial concentration 100 parts per million, except chlorobenzoate 2-3 millimolar
Procedure: as §1, §2

bacterial strain SK-3 [5] = experiment: Characterization of SK-3: growth on and degradation of chlorobiphenyls and chlorobenzoates
Procedure: (§3) The concentrations of chlorobenzoates and dichlorobiphenyls were assessed after hexane extraction of bottles using gas chromatography analysis of the extracts with an electron capture detector. Chlorobenzoates were analyzed using standard columns after derivitization with pentafluorobenzyl bromide. Dichlorobiphenyls were analyzed using a DB-5 column (J&W Scientific, Fulsom, Calif.).
The results from this experiment are depicted in FIG. 5.
The growth of SK-3 on 4-chlorobiphenyl (4-CB) was compared with growth on its non-chlorinated form, biphenyl. […] The results from this experiment are depicted in FIG. 6. The concentration of chloride ion was determined using ion chromatography on a standard Dionex ion chromatography column. The concentration of 4-CB was assessed after hexane extraction of bottles by analyzing the hexane extracts using gas chromatography on a DB-5 column (J&W Scientific, Fulsom, Calif.) and an electron capture detector.
The growth of SK-3 on chlorobenzoates was assessed. […] The results from this experiment are depicted in FIG. 7.
The degradation of three different monochlorobiphenyls, (2-CB, 3-CB, and 4-CB) by SK-3 was assessed at 23° C. under aerobic conditions on a shaker table. After incubation of SK-3 with the selected monochlorobiphenyl for 88 hours, the concentrations of chloride and the corresponding chlorobenzoic acids (CBA) was assessed as described herein. The results from this experiment are depicted in FIG. 8.
The growth of SK-3 on dichloro-biphenyls was also assessed. […] The results of this experiment are depicted in FIG. 9.

bacterial strain SK-4 [6] = experiment: Characterization of SK-4: growth on and degradation of 2,2′-DCBP and 2,4′-DCBP
Procedure: The same methods for determining concentrations of analytes and for the incubation of the bacterial strain with growth substrate described herein for the previous analyses were used in the experiments to characterize SK-4. The concentration of SK-4 cells in the experiments was 1.5×10^7 cells per milliliter and the concentration of 2,2′-DCBP or 2,4′-DCBP was 100 milligrams per liter. […] Ortho-substituted congeners are common degradation products of anaerobic reductive dechlorination of more highly chlorinated PCBs (PCBs comprising more than two chlorine atoms) by anaerobic bacteria.
2,2′-DCBP was supplied at a concentration of 100 milligrams per liter dissolved in heptamethyl nonane (HMN), a non-biodegradable PCB solvent. Controls contained HMN but lacked 2,2′-DCBP.

bacterial strain SK-2 [7] = experiment: Growth of SK-2 on 3,4-DCBP as sole carbon source and its degradation
Procedure: Growth of bacterial strains SK-1 and SK-2 on 2,3-DCBP and 3,4-DCBP, respectively, as a sole carbon source was determined using direct counting and an acridine orange staining method. This method involves filtering 0.1 milliliters of culture through a 0.45 micron filter, staining the cells on the filter using a 0.01% acridine orange solution for 3 to 5 minutes, and counting cells on the filter using an epifluorescent microscope at a 1000′ magnification. SK-1+ contained 2,3-dichlorobiphenyl; SK-2+ contained 3,4-dichlorobiphenyl. Control bottles in each case were identical to experimental bottles in that they were inoculated with the cultures but they lacked the appropriate congener. The initial concentration of PCBs was 500 ppm (w/v). The cell numbers of the two isolates increased by 1.5 orders of magnitude in the presence of the DCBPs used as a growth substrate. The degradation of 2,3-DCBP by SK-1 and production of 2,3-dichlorobenzoate is depicted in FIG. 3. The degradation of 3,4-DCBP by SK-2 and production of 3,4-dichlorobenzoate is depicted in FIG. 4.
as §3
The data shown in FIGS. 2, 3 and 4 illustrates the nearly complete disappearance of both 2,3-DCBP (0.38 mM initial concentration, FIG. 3) and 3,4-DCBP (0.3 mM initial concentration, FIG. 4) within 10 days of incubation. Duplicate bottles were used and error bars of the pictures represent a standard deviation. Controls contained DCBPs but lacked inoculum. DCBPs were supplied in the bottles using the non-biodegradable carrier heptamethylnonane (HMN).

[8] = 1.5×10^7 cells per milliliter, substrate in heptamethyl nonane

Structure (SMILES) | Degradation of PCB congeners of Aroclor 1242 by SK-3 (bacterial strain SK-3 [1]) | Growth of SK-2 on the substrate as sole carbon source (bacterial strain SK-2 [2]) | Growth of SK-3 on the substrate as sole carbon source (bacterial strain SK-3 [3]) | Growth of SK-4 on the substrate as sole carbon source (bacterial strain SK-4 [4]) | Growth of SK-1 on the substrate as sole carbon source (bacterial strain SK-1) | Growth of SK-3 on the substrate as sole carbon source (bacterial strain SK-3 [5]) | Doubling time of SK-3 grown on the substrate (bacterial strain SK-3 [5]; concentration 0.27 mM, sole carbon source) | Extent of chloride production by SK-3 (bacterial strain SK-3 [5]; growth on 0.27 mM 2,4′-DCBP) [mM] | Production of chlorobenzoates (2-CBA, 4-CBA) during growth of SK-3 (bacterial strain SK-3 [5]; growth on 2,4′-DCBP) | Growth of SK-4 on the substrate as sole carbon source (bacterial strain SK-4 [6]; 1.5×10^7 cells per milliliter, 100 milligrams per liter) | Chloride release on degradation by SK-4 (bacterial strain SK-4 [6]; [8]) | Chlorobenzoate production on degradation by SK-4 (bacterial strain SK-4 [6]; [8]) | Doubling time of SK-4 grown on the substrate (bacterial strain SK-4 [6]; concentration 0.42 mM, sole carbon source) [h] | Time to nearly complete disappearance (bacterial strain SK-2 [7]; SK-2, 0.3 mM initial concentration, supplied in heptamethylnonane) [days] | Increase of cell numbers in the presence of the DCBP as growth substrate (bacterial strain SK-2 [7]; SK-2, initial concentration 500 ppm (w/v), acridine orange direct counting) | Time at which concentration of chlorobenzoate produced from 3,4-DCBP by SK-2 reached a maximum, then decreased (bacterial strain SK-2 [7]; 0.3 mM 3,4-DCBP initial concentration) [h]
Clc1cccc(-c2ccccc2Cl)c1 [2,3′-DCBP] | degraded | No | No | No | No | – | – | – | – | – | – | – | – | – | – | –
Clc1ccc(-c2ccccc2Cl)cc1 [2,4′-DCBP, 2,4′-dichlorobiphenyl] | degraded | Unlikely | exhibited growth and Yes | exhibited growth and Yes | Yes | able to grow | approximately 43 hours | 0.49 | not detected | growth; also recorded: ability to grow rapidly | production of chloride | stoichiometric accumulation of a chlorobenzoate | ~17 | – | – | –
Clc1ccc(-c2ccccc2)cc1Cl [3,4-DCBP, 3,4-dichlorobiphenyl] | – | exhibited growth and Yes | No | No | No | – | – | – | – | – | – | – | – | ≤ 10 | 1.5 orders of magnitude | –
O=C(O)c1ccc(Cl)c(Cl)c1 [3,4-dichlorobenzoate] | – | – | No | No | – | – | – | – | – | – | – | – | – | – | – | 90
